Experimental data taken from patent US3994890A, “1-Aminoalkyl, 3-phenyl indazoles” (Chugai Seiyaku Kabushiki Kaisha, priority 1974, dated 1976).
Structures can show the parent of a compound that is named as a salt. Where two headings read alike, the source gives them in different places.

Tests used:
[1] = tested on: hexobarbital-treated ddY Strain male mice; test: Barbiturate potentiation (duration of loss of righting reflex due to hexobarbital); type: in vivo, mouse (ddY Strain); conditions: 0.5 h, read-out: Barbiturate potentiation (ratio with control groups)
Procedure: ddY Strain male mice (4 - 5 weeks old, body weight 23 - 28 g) in groups of 5 mice each were orally treated with 100 mg/kg of samples and 30 minutes after the oral administration the mice were intraperitoneally treated with 100 mg/kg of hexobarbital. Duration of loss of righting reflex due to hexobarbital was determined and barbiturate potentiation ratios with control groups were calculated. Imipramine, desipramine and diazepam were used as control drugs.

Acute toxicity, mouse = type: in vivo; conditions: in vivo, po
From the text: (§1) ddY Strain mice and Wistar-Imamichi strain rats were used to inspect acute toxicity and subacute toxicity (30 days; oral administration) of a compound of the formula [I].

ddY Strain mice = test: Acute toxicity, mouse; type: in vivo; conditions: p.o.
From the text: as §1

Acute toxicity, rat = conditions: in vivo, po
From the text: as §1

[2] = tested on: Wistar-Imamichi strain rats; test: Subacute toxicity (30 days; oral administration), rat; type: in vivo, rat (Wistar-Imamichi strain)
From the text: as §1

[3] = tested on: hexobarbital-treated ddY Strain male mice; test: Barbiturate potentiation (duration of loss of righting reflex due to hexobarbital); type: in vivo, mouse (ddY Strain); conditions: Mus musculus, po, 0.5 h, read-out: Barbiturate potentiation (ratio with control groups)
[4] = mouse, 100 mg/kg oral, 30 minutes before 100 mg/kg i.p. hexobarbital, loss of righting reflex duration
[5] = 30 days oral, at a dose of 50 mg/kg

Compound	response vs control in vivo at 100 mg/kg [1, 4] [%]	further results
CN(C)CCn1nc(-c2ccccc2)c2ccccc21 [Example 1, 1-dimethylaminoethyl-3-phenylindazole hydrochloride]	300	
CN(C)CCn1nc(-c2ccccc2)c2cc(Cl)ccc21 [Example 2, 1-dimethylaminoethyl-3-phenyl-5-chloroindazole hydrochloride]	150	
Cc1ccc2c(c1)c(-c1ccccc1)nn2CCN(C)C [Example 3, 1-dimethylaminoethyl-3-phenyl-5-methylindazole hydrochloride]	150	
CCN(CC)CCn1nc(-c2ccccc2)c2cc(Cl)ccc21 [Example 4, 1-diethylaminoethyl-3-phenyl-5-chloroindazole hydrochloride]	120	
CCN(CC)CCn1nc(-c2ccccc2)c2ccccc21 [Example 6, 1-diethylaminoethyl-3-phenylindazole hydrochloride]	290	
CN(C)CCCn1nc(-c2ccccc2)c2ccccc21 [Example 7, 1-dimethylaminopropyl-3-phenylindazole hydrochloride]	190	
CN(C)CCCn1nc(-c2ccccc2)c2cc(Cl)ccc21 [Example 8, 1-dimethylaminopropyl-3-phenyl-5-chloroindazole hydrochloride]	130	
Cc1ccc2c(c1)c(-c1ccccc1)nn2CCCN(C)C [Example 10, 1-dimethylaminopropyl-3-phenyl-5-methylindazole]	100	LD50 (Acute toxicity, mouse): 580 mg/kg; LD50 (ddY Strain mice): 660 mg/kg; LD50 (Acute toxicity, rat): 3000 to 5000 mg/kg; Subacute toxicity: fatality ([2]; 30 days oral, at a dose of 100 mg/kg): not fatal; Subacute toxicity: symptoms ([2]; in vivo, po, 100 mg/kg): no abnormal symptom
c1ccc(-c2nn(CCCN3CCCCC3)c3ccccc23)cc1 [Example 11, 1-piperidinopropyl-3-phenylindazole hydrochloride]	130	
Cc1ccc2c(c1)c(-c1ccccc1)nn2CCCN1CCCCC1 [Example 12, 1-piperidinopropyl-3-phenyl-5-methylindazole hydrochloride]	100	
Clc1ccc2c(c1)c(-c1ccccc1)nn2CCN1CCOCC1 [Example 14, 1-morpholinoethyl-3-phenyl-5-chloroindazole hydrochloride]	170	
Cc1ccc2c(c1)c(-c1ccccc1)nn2CCCN1CCOCC1 [Example 15, 1-morpholinopropyl-3-phenyl-5-methylindazole hydrochloride]	140	
Cc1ccc2c(c1)c(-c1ccccc1)nn2CCCN1CCN(C)CC1 [Example 17, 1-N-methylpiperazinopropyl-3-phenyl-5-methylindazole hydrochloride]	100	
Clc1ccc2c(c1)c(-c1ccccc1)nn2CN1CCOCC1 [Example 19, 1-morpholinomethyl-3-phenyl-5-chloroindazole]	120	
Cc1ccc2c(c1)c(-c1ccccc1)nn2CN1CCCC1 [Example 20, 1-pyrrolidinomethyl-3-phenyl-5-methylindazole hydrochloride]	160	
c1ccc(-c2nn(CN3CCOCC3)c3ccccc23)cc1 [Example 23, 1-morpholinomethyl-3-phenylindazole]	130	
O=C1c2ccccc2C(=O)N1CCCn1nc(-c2ccccc2)c2cc(Cl)ccc21 [Example 25, 1-phthalimidopropyl-3-phenyl-5-chloroindazole]	110	
CNCCCn1nc(-c2ccccc2)c2cc(C)ccc21 [Example 29, 1-N-monomethylaminopropyl-3-phenyl-5-methylindazole hydrochloride]	170	
Cc1ccc2c(c1)c(-c1ccccc1)nn2CCCN [Example 34, 1-aminopropyl-3-phenyl-5-methylindazole]	250	
CNCCCN1c2ccccc2CCc2ccccc21 [desipramine, reference compound]		response vs control in vivo at 100 mg/kg ([1]; Mus musculus, po): 150%
CN1C(=O)CN=C(c2ccccc2)c2cc(Cl)ccc21 [diazepam]		response vs control in vivo at 5 mg/kg [3]: 230%
CN(C)CCCN1c2ccccc2CCc2ccccc21 [imipramine]		response vs control in vivo at 100 mg/kg ([1]; Mus musculus, po): 130%; Subacute toxicity: blood urine nitrogen [2, 5]: reduced; Subacute toxicity: fatality [2, 5]: not fatal; Subacute toxicity: hemoglobin [2, 5]: reduced
